Patent US20030156970A1, “Sulphur-free lignin and derivatives thereof for reducing the formation of slime and deposits in industrial plants” (priority 2000, published 2003)

Test system: slime and deposits in paper machine white water
Assay: Slime and deposit formation in white water tanks, same test record as example 10 (example 12, lignin plus small quantity of biocide)
Parameters: species or system bacteria
From the text: The white water originated from the white water I circuit of a paper machine which produces wood-free paper with carbonate filler, used painted rejects and starch for the production of the stock and runs at a slightly alkaline pH. The white water was sampled after a re-start, before any slime combating systems were used. […] Seven tanks were filled with the white water up to the 5-litre mark, the magnetic agitators were switched on, as well as the thermostatically controlled heating systems which were set to 36° C. Weighed slime measuring boards were fully immersed in the liquid. The microbial activity in the test tanks was checked by plating out on bacterial count-Agar from the company of Merck. The additions to the slime check to be compared were diluted in a suitable way and a certain quantity was added to each test tank. After 72 hours the bacterial counts were determined again and the measuring boards covered in slime were carefully weighed. After the measurements after 72 hours the slime measur8ing boards were dried at 105° C. and again weighed in order to determine the dry weight of the stored material. The dried material was then removed from the boards and incinerated in a furnace in porcelain crucibles at 550° C. The ash was weighed back in order to measure the percentage of mineral substances in the original deposits. The whole experiment was repeated with various concentrations of the individual slime combating products.
The same test record as in example 10 was followed, however using the following products

[1] = 70 ppm active (combination 50 + 20), 72 hrs

## O=[N+]([O-])C(Br)(CO)CO [bromiumnitropropane diol, 2-bromium-2-nitropropane-1,3-diol]
[1]
  Ash content in deposits in % of the solids content of the control: 17%
  Dry weight of the deposit: 1.026 g
  Moist weight of the deposit: 1.020 g
  Solids content in deposit: 12%
70 ppm active (combination 50 + 20), 72 hrs, control = 100
  Solids content in deposits in % of the control: 23%
Addition (active) 70 ppm per volume (combination 50 + 20 ppm), white water 4.7 g/l solids, start count 4.2 × 10^5
  Bacterial count after 72 hrs: 8.1 × 10^4 CFU/ml
